The structures appear in SMILES notation.

Series [1] concerns primary human fibroblasts (HDF) in hypoxic chamber. Put plainly: sVEGF ELISA in primary fibroblasts under hypoxia. The format is cell-based. The note with it: 48 h. The text has this:
FIG. 9: USP7 inhibition decreases VEGF levels in fibroblasts under hypoxia.
In response to wounding and during tumour growth, activated fibroblasts secrete synthesizers and modifiers of the ECM but also soluble angiogenic growth factors such as VEGF. Although VEGF gene expression can be controlled by multiple transcription factors, its major regulator is hypoxia-inducible factor 1 (HIF-1). HIF-1 mediates activation of VEGF transcription in response to hypoxia in solid tumours and in various malignant cell lines.
To assess its potency in a functional assay, HDF were treated with vehicle or various concentrations of USP7 inhibitor ADC-159 and incubated for 48 hours in hypoxic chamber. Cell culture supernatants were collected, and secreted VEGF was measured by ELISA.
For the co-culture experiments, 5×10^4 cancer cells were seeded in transwell in 0.5 mL complete growth medium and placed on the top of 0.1×10^6 fibroblasts plated in 12-well in 1 mL low serum growth media overnight. Following day cancer cells were washed with PBS and media replaced with reduced (1%) serum growth media. 0.5×10^6 PBMC were plated on top of fibroblasts, incubated for 45 min and activated with CD3 (1 μg/ml final concentration) and CD28 (5 μg/ml final concentration). […] Monoculture experiments, 0.1×10^6 cells were seeded in 12-well in 1 mL of complete growth media (cancer cells) or low serum growth media (fibroblasts) and incubated overnight. […] Afterwards, cell culture media was collected, cell debris were removed by centrifugation the concentration of VEGF in the cell culture supernatants was measured using the human/mouse VEGF immunoassay Quantikine ELISA kit (R&D systems, Minneapolis, Minn., USA) according to the manufacturer's instructions. For the intracellular VEGF detection, total protein concentration was determined by BCA (Pierce Chemical, USA) and VEGF levels determined using the same kit described above.

For another series, the system named is HDF and HUVEC co-culture. Briefly: In vitro co-culture tube formation assay. The class given is cell-based, human. Conditions: for tube formation, pre-formed tubes: treated after tube formation; for tube length, de novo tube formation: treated prior to tube formation, 14 days. As for the experimental part: Representative pictures taken at day 14 are shown. Tube formation was quantified by measuring tube length ([…]) and is shown.
HDF were seeded in 96-well plate (2500 cells/well). Once HDF formed a monolayer, media was removed and HUVECs (2500 cells/well) were seeded on top of HDF. […] The effect on existing vessels was assayed by allowing tubes to form prior to treatment. Cells were treated every 3-days during 14 days of incubation, followed by washing with PBS and fixation with 4% formaldehyde for 15 min at room temperature (RT). Cells were permeabilized with 1× PBS containing 0.1% Triton X-100 for 5 min at RT and blocked 30 min in 1% BSA/PBS. Afterwards, cells were incubated with CD31 antibody (Thermo Fisher, MA5-13188) […] followed by incubation with secondary Alexa fluor 488F goat-anti-mouse (Thermo Fisher, A28175) at 1/2000 dilution for 3 h at RT. Immunolabeled samples were counterstained with Hoechst 33342 nuclear dye (Thermo Fisher, 62249) at 1/1000 dilution for 15 min. Tubes were visualized with IN Cell Analyzer 2000 using a 2× objective. Tube length was measured and quantified using the AngioTool software for each imaging session (available in the public domain at https://ccrod.cancer.gov/confluence/display/ROB2/Downloads

In series [2] the test system is CT-26 mouse cancer cell line. Put plainly: CT-26 cell viability in vitro. The format is cell-based. The protocol: CT-26 syngeneic models are in vivo models to monitor the effect of compounds on the TME. […] After 72 hours cell viability was measured by CellTiter-Glo®.
Another series has as its system CT-26 tumours. Put plainly: Histology and immunofluorescence of CT-26 tumours (ADC-159). The class given is in vivo, mouse. As for the experimental part: FIG. 36: ADC-159 prevents tumour vessel maturation in CT-26 syngeneic mouse model in vivo. FFPE tumour blocks were prepared after 15 days of treatment with vehicle and ADC-159 and co-stained with endothelial cell marker CD31 (green), pericyte marker NG2 (red) and DAPI (blue; n=5 blocks/group). Mature blood vessels have fine branching positive for CD31 and NG2 staining (A, left image) which is lost when treated with USP7 inhibitor (B, right image).
FIG. 37: ADC-159 decreases tumour area and increases necrosis area in the CT-26 syngeneic mouse model in vivo. […] FFPE tumour blocks were prepared followed by quantification of tumour and necrosis using HALO software.
After rinsing with running water, the specimens were transferred to the Vacuum Tissue Processor (HistoCore PEARL, Leica) for dehydration, then embedded into FFPE blocks using Tissue embedding center (EG1150, Leica). FFPE blocks were sectioned with a manual rotary microtome (RM2235, Leica), 4 μm thickness/section. Sections were processed for staining with hematoxylin and eosin (H&E) or for immunofluorescent (IF) analysis. For IF sections were stained with primary antibodies specific for CD31 (abcam), NG2 (sigma) and cell nuclei were counterstained with DAPI. All stained sections were scanned with Pannoramic Digital Slide Scanners for 40× magnification (3[…], Pannoram ic SCAN). All the images were analyzed with HALOTM platform were tumour area and large areas of necrosis were quantified. Non-tumour tissue on the periphery was excluded.

A further series in a line: LM CLhep (h). The format is in vitro ADME, human.
For the next series, the target named is 1A2 (Homo sapiens, UniProt P05177). Put plainly: Cyp inhibition 1A2. The format is in vitro ADME. Conditions: read-out: Cyps: 1A2.
Sequence of 1A2 (P05177 whole entry): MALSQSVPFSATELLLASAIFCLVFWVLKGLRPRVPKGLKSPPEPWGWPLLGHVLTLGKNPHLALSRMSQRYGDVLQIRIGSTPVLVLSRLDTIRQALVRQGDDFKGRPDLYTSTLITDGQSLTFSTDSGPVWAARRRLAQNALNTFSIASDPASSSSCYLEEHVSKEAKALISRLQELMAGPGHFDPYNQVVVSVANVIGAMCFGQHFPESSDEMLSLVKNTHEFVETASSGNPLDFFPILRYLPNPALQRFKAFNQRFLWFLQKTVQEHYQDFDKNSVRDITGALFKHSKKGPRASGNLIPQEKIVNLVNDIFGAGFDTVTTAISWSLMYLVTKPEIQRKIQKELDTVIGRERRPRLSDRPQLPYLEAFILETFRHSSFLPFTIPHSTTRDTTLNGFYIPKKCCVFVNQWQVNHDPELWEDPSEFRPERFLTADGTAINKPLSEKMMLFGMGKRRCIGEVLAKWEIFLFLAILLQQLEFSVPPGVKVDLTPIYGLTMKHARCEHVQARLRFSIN
The target in a further series is 2D6 (Homo sapiens, UniProt P10635). Briefly: Cyp inhibition 2D6. The format is in vitro ADME. The note with it: read-out: Cyps: 2D6.
Sequence of 2D6 (P10635 whole entry): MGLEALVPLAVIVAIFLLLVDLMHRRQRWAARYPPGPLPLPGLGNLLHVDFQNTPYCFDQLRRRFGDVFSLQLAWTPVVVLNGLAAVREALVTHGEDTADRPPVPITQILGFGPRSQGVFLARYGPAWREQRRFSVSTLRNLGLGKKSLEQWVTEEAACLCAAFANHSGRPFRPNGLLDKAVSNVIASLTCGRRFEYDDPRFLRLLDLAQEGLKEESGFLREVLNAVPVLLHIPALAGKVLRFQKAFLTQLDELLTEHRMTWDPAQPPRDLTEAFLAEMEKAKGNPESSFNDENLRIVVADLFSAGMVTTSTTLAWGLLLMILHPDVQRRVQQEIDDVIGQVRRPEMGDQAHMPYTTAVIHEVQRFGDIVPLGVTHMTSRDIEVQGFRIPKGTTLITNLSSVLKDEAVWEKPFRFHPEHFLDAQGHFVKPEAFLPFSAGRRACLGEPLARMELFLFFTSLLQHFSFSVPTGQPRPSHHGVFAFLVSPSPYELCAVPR
Another series has as its system VEGFA mRNA. Briefly: RNA-seq of hypoxia activated HDF, VEGFA mRNA. The class given is cell-based, human. The protocol: Afterwards RNA was extracted and analysed by RNA-seq. […] To evaluate which signalling pathways are induced in hypoxia activated fibroblasts, a comparative pathway analysis was performed on of samples coming from both, non-activated (normoxia) and hypoxia activated primary fibroblasts.

Another series concerns MMP-7. Briefly: MMP-7 in supernatants of HDF invasion assay (Luminex). The format is cell-based, human. Conditions: invading HDF, 96 hours. As for the experimental part:
The scratch wound cell invasion assay was used to measure the ability of primary human fibroblasts to invade through Matrigel® basement membrane. Cell culture supernatants from invasion assay were collected after 96 hours and MMP-7 levels were measured using Luminex®.
To further explore whether USP7 inhibition modulates MMP levels in invading fibroblasts, cell culture supernatants from HDF invasion assay were collected and presence of various MMP was detected using Luminex® Multiplex assay.
Concentrations of MMP2 and MMP7 were determined in cell culture supernatants in triplicates using Luminex human cytokine/chemokine multiplex kits (Millipore, St. Charles, Mo., USA) according to the manufacturer's protocol.

Another series relates to HIF-1α. Briefly: Cycloheximide chase assay, HIF-1α half-life.

Description for HIF-1α: Cells were lysed at the indicated time points (from 0 to 60 min) and samples analysed by immuno-blotting probing for HIF-1α. HIF-1α half-life was quantified by densitometry analysis. β-Actin was included as a normalization control.
Samples were subsequently collected at various time points for immuno-blot analysis probing for HIF-1α levels.
Cells were harvested and lysed at different time points and subjected to Western blot analysis using anti-HIF-1α antibody (D2U3T, Rabbit mAb #14179 Cell Signalling) and β-actin (Santa Cruz: A5316; 1:5000) as a loading control.

`CC1(C(=O)N2CCC(O)(Cn3cnc4c(cc(Cl)n4-c4ccc5c(c4)CCO5)c3=O)CC2)CC1` [ADC-159, 6-Chloro-7-(2,3-dihydrobenzofuran-5-yl)-3-((4-hydroxy-1-(1-methylcyclopropane-1-carbonyl)piperidin-4-yl)methyl)-3,7-dihydro-4H-pyrrolo[2,3-d]pyrimidin-4-One]: the “VEGF secretion under hypoxia” value in [1] is reported as “decreased VEGF levels in a dose-dependent manner”. In addition, in the series with HDF and HUVEC co-culture, the “tube formation, pre-formed tubes” value is “did not have significant effect” and the “tube length, de novo tube formation” value is on record as “inhibitory effect”. Further, the “sensitivity of CT-26 cell line in vitro” value in [2] is given as “not sensitive”. For the same molecule, in the series on CT-26 tumours (100 mg/kg, compared to vehicle), the “necrosis area at the tumour site” value is recorded as “significant increase” and the tumour area result is on record as “significant reduction”. Also, in the series with CT-26 tumours (15 days of treatment), the “tumour vessel formation (CD31/NG2 staining)” value is on record as “prevents tumour vessel formation”. In addition, the “LM CLhep (h)” value in “LM CLhep (h)” is given as 9. Moreover, at 1A2, the IC50 is more than 20 µM. Besides, at 2D6, the IC50 is more than 20 µM.
Regarding `C[C@H](CC(=O)N1CCC(O)(Cn2cnc3c(-c4ccc(CN)cc4)n(C)nc3c2=O)CC1)c1ccccc1` [AD-04, (R)-3-(4-(Aminomethyl)phenyl)-6-((4-hydroxy-1-(3-phenylbutanoyl)piperidin-4-yl)methyl)-2-methyl-2H-pyrazolo[4,3-d]pyrimidin-7(6H)-one], the “VEGF secretion under hypoxia” value in series [1] is listed as “decreased in a dose-dependent manner”. In the series on VEGFA mRNA (hypoxia, 24 hours), the “mRNA expression of anti-angiogenic short (191aa) isoform” value is on record as “up-regulated” and the “mRNA expression of pro-angiogenic long (371aa) isoform” value is reported as “strongly down-regulated”. Moreover, the “VEGF mRNA levels” value with VEGFA mRNA (hypoxic conditions) is “down-regulated”. Besides, the MMP-7 levels entry in the series on MMP-7 is reported as “decreases”. In the series with HDF and HUVEC co-culture, the “tube formation, pre-formed tubes” value is “significantly less pronounced” and the “tube length, de novo tube formation” value is “significant reduction”. For the same molecule, the “sensitivity of CT-26 cell line in vitro” value in series [2] is listed as “not sensitive”. The molecule also had an HIF-1α half-life in the series on HIF-1α (HDF, hypoxia, cycloheximide 100 μg/mL, AD-04 1 μM) of 4 min. The “reduction of HIF-1α half-life” value with HIF-1α (versus untreated cells (6 minutes and 36 seconds)) is given as 40%.
